Source: publication PMC7174022 (Dalton transactions (Cambridge, England : 2003), 2020)

Columns and labels:
[1] = system: microtubule network in MCF-7 cells; assay type: cell-based, human
[2] = system: DU-145 cells (metastatic prostate carcinoma); assay type: cell-based, human; details: read-out: IC50 DU-145
[3] = system: MIA PaCa 2 cells (human pancreatic carcinoma); assay type: cell-based; details: read-out: IC50 MIA PaCa 2
[4] = system: Hep G2 cells (human hepatocellular carcinoma); assay type: cell-based; details: read-out: IC50 Hep G2
[5] = system: HFF-1 cells (normal human foreskin fibroblast); assay type: cell-based; details: read-out: IC50 HFF-1
[6] = system: PANC-1 cells (human pancreatic carcinoma); assay type: cell-based; details: read-out: IC50 PANC-1
[7] = system: MCF-7 cells (breast adenocarcinoma); assay type: cell-based, human; details: read-out: IC50 MCF-7
[8] = system: DU-145 cells; assay type: cell-based, human
[9] = system: the cell lines investigated

COc1cc2c(c(OC)c1OC)-c1ccc(OC)c(=O)cc1[C@@H](NC(C)=O)CC2 [colchicine, Colchicine]
organization of microtubule network (positive control) [1]: disruption of microtubule network

O=C1[O][Pt]2([NH][C@@H]3CCCC[C@H]3[NH]2)[O]C1=O [Oxaliplatin]
IC50 [2]: 4.5 ± 0.3 µM
IC50 [3]: 5.7 ± 0.2 µM
IC50 [4]: 9.8 ± 0.3 µM
IC50 [5]: 7 ± 0.6 µM
IC50 [6]: 3.1 ± 0.2 µM
IC50 [7]: 0.6 ± 0.1 µM
increase in cell killing efficiency in presence of verapamil [8]: 8 times

OCCN(CCO)Cc1ccccn1 [Complex L1, bis(2-hydroxyethyl)pyridylmethylamine]
cytotoxicity of the ligands (in words) [9]: did not exhibit any cytotoxicity
